From PMC9122626 (2020)

Legend:
[1] = system: human telomeric G4 DNA, dAGGG(TTAGGG)3 (DNA, G4) AGGGTTAGGGTTAGGGTTAGGG; assay: intrinsic fluorescence titration; conditions: 15 μM peptide; 0 to 18.16 μM G4; room temperature
[2] = system: ds26 (DNA, duplex) CAATCGGATCGAATTCGATCCGATTG; assay: ITC; conditions: Na+ 100 mM
[3] = system: human telomeric G4 DNA, dAGGG(TTAGGG)3 (DNA, G4) AGGGTTAGGGTTAGGGTTAGGG; assay: EMSA; conditions: 30 μM G4; room temperature; 15-120 μM peptide
[4] = system: human telomeric G4 DNA, dAGGG(TTAGGG)3 (DNA, G4) AGGGTTAGGGTTAGGGTTAGGG; assay: time-resolved fluorescence (TCSPC); conditions: 100 mM Na+; 10 mM Tris, pH 7.3, 25 °C; 5.5 μM peptide; 0 to 10.5 μM G4
[5] = system: human telomeric G4 DNA, dAGGG(TTAGGG)3 (DNA, G4) AGGGTTAGGGTTAGGGTTAGGG; assay: CD titration; conditions: Na+; aqueous buffer
[6] = system: human telomeric G4 DNA, dAGGG(TTAGGG)3 (DNA, G4) AGGGTTAGGGTTAGGGTTAGGG; assay: thiazole orange displacement (fluorescence); conditions: 298 K; thiazole orange displaced; 0.25 μM G4, 0.50 μM TO
[7] = system: human telomeric G4 DNA, dAGGG(TTAGGG)3 (DNA, G4) AGGGTTAGGGTTAGGGTTAGGG; assay: ITC; conditions: Na+ 100 mM; 298.15 K; 64 μM DNA in cell, 700 μM peptide in syringe

**Q.** `N[C@@H](Cc1ccc(O)cc1)C(=O)N[C@@H](CCC(=O)N[C@@H](CCC(=O)O)C(=O)O)C(=O)N[C@@H](CCC(=O)O)C(=O)O` (racemic) was tested. Which binding [1] did it give?
**A.** Its binding is “yes”.

**Q.** What about the Ka [2] of the same compound?
**A.** Its Ka is 9600 M⁻¹.

**Q.** What about the binding [3] of the same compound?
**A.** Its binding is “yes”.

**Q.** And the binding [4]?
**A.** Its binding is “yes”.

**Q.** What about the binding [5] of the same compound?
**A.** Its binding is “yes”.

**Q.** And the IC50 [6]?
**A.** Its IC50 is ~ 8.4 μM.

**Q.** And the Ka [7]?
**A.** Its Ka is 1.1e+06 M⁻¹.
